Experimental findings from patent publication US5599974A, “Aldehydic agents for allosteric modification of hemoglobin” (Center for Innovative Technology, priority 1994, dated 1997) are described below.

The target in assay [1] is T1, human hemoglobin (HbA) (Homo sapiens, UniProt P69905).
T1 construct: hemoglobin solution
Kind of assay: Oxygen equilibrium studies of hemoglobin solutions (Hem-O-Scan oxygen dissociation curves). In kind it is biochemical. The note with it: hemoglobin solution; for P50 D (aver.) / ΔP50 (P50 D - P50 C): Hb 2.7 mM; for P50 D (aver.): compound 10 mM (approx. 4:1), 50 mM HEPES pH 7.4, incubated at 4° C. for two hours; for ΔP50 (P50 D - P50 C): compound 10 mM, 50 mM HEPES pH 7.4, positive = right shift. The text has this: In blood, hemoglobin is in equilibrium between two allosteric structures. In the "T" (for tense) state, hemoglobin is de-oxygenated. In the "R" (for relaxed) state, hemoglobin is oxygenated. An oxygen equilibrium curve can be scanned using well known equipment such as the Aminco™ Hem-o-scan to evaluate the affinity and degree of cooperativity (allosteric action) of hemoglobin. In the scan, the Y-axis plots the percent of hemoglobin oxygenation and the X-axis plots the partial pressure of oxygen in millimeters of mercury (mm Hg). If a horizontal line is drawn from the 50% oxygen saturation point to the scanned curve and a vertical line is drawn from the intersection point of the horizontal line with the curve to the partial pressure X-axis, a value commonly known as the P50 is determined. This is the pressure when the hemoglobin is 50% saturated with oxygen. By comparing the P50 value for treated hemoglobin to the P50 value for untreated normal adult human hemoglobin (HbA) under physiological conditions (i.e., 37° C., pH=7.4, and partial carbon dioxide pressure of 40 mm Hg), the degree of allosteric modification can be determined. When the P50 value for treated hemoglobin is lower than for HbA, a high oxygen affinity hemoglobin is indicated and the curve is said to be "left-shifted". Conversely, when the P50 value for treated hemoglobin is higher than for HbA, a low oxygen affinity hemoglobin is indicated and the curve is said to be "right-shifted".
In the oxygen equilibrium studies, the HbA was further purified by dialysis against pH 8.6. Tris buffer (50 mM, containing 40 mg EDTA/L) to remove any residual A2 hemoglobin. The pure HbA fraction was concentrated by using a Schleicher and Schuell colloidion bag apparatus, available from Schleicher and Schuell, Inc., with HEPES buffer (50 mM, pH 7.4) as the exchange buffer. The Hb concentration was determined by using the cyanmet method. The Hb concentration at this point was usually found to be around 35 g% (approximately 5.4 mM). Less than 5% methemoglobin was noted even after several days at 4° C. Oxygen dissociation curves were recorded on an AMINCO Hem-0-Scan oxygen dissociation analyzer available from Travenol Laboratories.
All compounds were dissolved in 50 mM HEPES buffer, pH 7.4, to give 20 mM of drug solution. The Hb (5.4 mM, in HEPES, pH 7.4) and the test compounds (20 mM) were mixed in 1:1 volume ratio (50μL of Hb+50μL of compound solution) to give final concentrations of 2.7 mM and 10mM, respectively (a molar ratio of test compound to hemoglobin of approximately 4:1). A control experiment was prepared by the addition of 50 μL of Hb to 50 μL of HEPES buffer. The mixtures were incubated at 4° C. for two hours before running the oxygen dissociation curves.

The target in assay [2] is T2, HbA (Homo sapiens, UniProt P69905).
T2 construct: co-crystals with compounds
The assay can be described thus: X-ray diffraction analysis of HbA/drug complexes (difference electron-density maps). It is filed as binding. To be noted: HbA tetramer/drug molar ratio 1:5 (TB17 1:10), Schiff base reduced, deoxygenated crystals. The procedure:
Reaction of the drug compounds with HbA, crystallization and X-ray data collection of the HbA/drug complexes were performed according to the procedures of Wireko et al., Proc. Natl. Acad. Sci. USA, 1991, 88, 2209, which is herein incorporated by reference, with some slight modifications. Freshly prepared solutions of the synthesized compounds in potassium phosphate buffer were incubated at oxy HbA tetramer/drug molar ratios of 1:5 or 1:10 for at least 24 hours. Sodium cyanoborohydrie in phosphate buffer was added in 10- to 50-fold molar excess of HbA tetramer to reduce the Schiff's base adduct for at least 24 hours. The deoxygenated HbA/compound complexes were set up for crystallizations following the procedures described in Perutz et al., Crys. Growth, 1968, 2, 54, which is herein incorporated by reference, with some slight modifications. X-ray quality crystals for all complexes were obtained after three to seven days. Crystals of TB19 (discussed below) grown with HbA incubated and reduced under deoxygenated conditions was also used for data collection.
X-ray diffraction data for the MS2 complex (discussed below) was collected using a Rigaku AFC5R rotating anode diffractometer to a resolution of 4Å. All hk±1 reflections and their Friedel pairs were collected. One crystal, dimensions 0.3 to 1.2 mm was used for collection. Diffraction data for the rest of the complexes were collected with a Rigaku AFC5R rotating anode diffractometer equipped with an R-axis IIC image plate system, all to a resolution of 1.94A. Crystals of linear dimensions 0.2 to 0.5 mm were used. Data reduction, structure solution and calculation of Fourier difference electron-density maps were as described in Wireko et al., Proc. Natl. Acad. Sci. USA, 1991, 88, 2209.
Models of the compounds created with MMOD and minimized with MM2 force field were fitted to the electron-density by using FRODO on an EVANS and SUTHERLAND PS390 graphic station.
X-ray diffraction analyses were used to study several of the new drug complexes including MS1, MS2, TB8, TB10, TB17, TB19, TB32, TB36, TB62, and TB63. The difference electron-density maps of all complexes discussed are that of the HbA tetramer/drug molar ratio of 1:5, except TB17 which is 1:10. All drug molecules contain at least two functionalities, an aldehyde and a carboxylate, common to all of them. […] The only exception was MS2 where only one of the carboxylate oxygens was involved in the salt bridge interaction. The above binding site, which is common to all of the complexes, will be referred to as the α-cleft binding site. Some of the above drug compounds have additional functional groups which are also involved in additional interaction with other HbA residues, including hydrogen bonding, van der Waals interaction, and a second covalent bonding.
All complexes have two molecules of the drug compounds bound at the above-mentioned α-cleft site and are related by the two fold noncrystallographic axis. These sites are further noted as the α1-cleft site (Val-1α1 binding site), and the α2-cleft site (Val-1α2 binding site). In all complexes, the electron density at the α2-cleft site were slightly bigger and better defined than the electron density at the α1-cleft site. In addition to the binding at the α-cleft site, some of the drug compounds also bind to other secondary sites, including other sites in the α-cleft water cavity, the β-cleft water cavity located at Val-1β, and the Hb polymer contact site located near the residues His-116β and His-117β.

Assay [3] concerns whole blood. The assay can be described thus: Whole-blood studies: effect on the oxygen affinity of whole blood. In kind it is cell-based. To be noted: for P50 D (aver.): heparinized whole blood mixed 1:1 with test compound solution, equilibrated 1 hour at 37° C., P50 C 25.0; for direction of shift of the oxygen equilibrium curve / ΔP50 D: whole blood; for ΔP50 D: 1 hour at 37° C., P50 D - P50 C.

For `O=Cc1ccc(OCc2ccccc2)c(C(=O)O)c1` [TB17, 2-benzyloxy-5-formylbenzoic acid], the “direction of shift of the oxygen equilibrium curve” value in assay [1] is given as “right shift”. In addition, the “binding sites in HbA seen in the difference electron-density map” value in assay [2] is on record as “three molecules of TB17 reacted to the Hb tetramer”. In assay [3], the “P50 D (aver.)” value worked out at 14.5 mm Hg, the “direction of shift of the oxygen equilibrium curve” value was “left shift” and the “ΔP50 D” value was -9.5 mm Hg.
On to `O=Cc1ccc(OCCCCOc2ccc(C=O)cc2C(=O)O)c(C(=O)O)c1` [TB19, 1,4-Bis(2-carboxy-4-formylphenoxy)-butane], for which, in assay [1], the “direction of shift of the oxygen equilibrium curve” value is “right shift”, the “P50 D (aver.)” value was determined as 42.0 mm Hg and the “ΔP50 (P50 D - P50 C)” value is 20.0 mm Hg. Also, the “binding sites in HbA seen in the difference electron-density map” value in assay [2] is reported as “binding exclusively at the two symmetry-relatedα-cleft sites”. Moreover, in assay [3], the “P50 D (aver.)” value was found to be 19.5 mm Hg, the “direction of shift of the oxygen equilibrium curve” value is reported as “left shift” and the “ΔP50 D” value is -5.5 mm Hg.
`O=Cc1ccc(OCOc2ccc(C=O)cc2C(=O)O)c(C(=O)O)c1` [TB62/45, bis(2-carboxy-4-formylphenoxy)-methane]: in assay [1], the “P50 D (aver.)” value was determined as 51.0 mm Hg and the “ΔP50 (P50 D - P50 C)” value came to 29.0 mm Hg. In addition, in assay [2], the “binding sites in HbA seen in the difference electron-density map” value is on record as “binding exclusively at the two symmetry-related α-cleft sites”.
